Results published in PubChem BioAssay (NCI).
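Interpolation was linear, between the two tested concentrations surrounding the appropriate level; five concentrations were tested over 48 hours in 96-well plates. Definition used: TGI = concentration required for complete inhibition of growth.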

Key:
Experiment in all cases: NCI-60 cell line screen, 48 h
MOLT-4 leukemia = tested on: MOLT-4 leukemia
MDA-MB-231 breast = tested on: MDA-MB-231 breast
SW-620 colon = tested on: SW-620 colon
HCT-15 colon = tested on: HCT-15 colon
NCI-H522 lung = tested on: NCI-H522 lung
MDA-MB-435 = tested on: MDA-MB-435
CCRF-CEM leukemia = tested on: CCRF-CEM leukemia
786-0 renal = tested on: 786-0 renal
HL-60(TB) leukemia = tested on: HL-60(TB) leukemia
SNB-75 CNS = tested on: SNB-75 CNS
OVCAR-8 ovarian = tested on: OVCAR-8 ovarian
HT29 colon = tested on: HT29 colon
COLO 205 colon = tested on: COLO 205 colon
UACC-257 melanoma = tested on: UACC-257 melanoma
OVCAR-4 ovarian = tested on: OVCAR-4 ovarian
UACC-62 melanoma = tested on: UACC-62 melanoma
TK-10 renal = tested on: TK-10 renal
K-562 leukemia = tested on: K-562 leukemia
NCI-H460 lung = tested on: NCI-H460 lung

Row | Compound | TGI (MOLT-4 leukemia) | TGI (MDA-MB-231 breast) | TGI (SW-620 colon) | TGI (HCT-15 colon) | TGI (NCI-H522 lung) | TGI (MDA-MB-435) | TGI (CCRF-CEM leukemia) | TGI (786-0 renal) | TGI (HL-60(TB) leukemia) | TGI (SNB-75 CNS) | TGI (OVCAR-8 ovarian) | TGI (HT29 colon) | TGI (COLO 205 colon) | TGI (UACC-257 melanoma) | TGI (OVCAR-4 ovarian) | TGI (UACC-62 melanoma) | TGI (TK-10 renal) | TGI (K-562 leukemia) | TGI (NCI-H460 lung)
1 | CC1(C)CCCC2(C)C3=C(CCC12)C(=O)OC3 (stereo not drawn) | > 100 µM | > 100 µM | > 100 µM | > 100 µM | > 100 µM | > 100 µM | > 100 µM | > 100 µM | 67.9 µM | > 100 µM | > 100 µM | > 100 µM | > 100 µM | > 100 µM | > 100 µM | > 100 µM | > 100 µM | – | –
2 | O=C1CCN=C(NC(=O)C(F)(F)F)N1CCc1c[nH]c2ccccc12 | > 100 µM | > 100 µM | > 100 µM | > 100 µM | > 100 µM | > 100 µM | > 100 µM | > 100 µM | > 100 µM | – | > 100 µM | > 100 µM | > 100 µM | > 100 µM | > 100 µM | > 100 µM | > 100 µM | > 100 µM | > 100 µM
3 | Nc1c(C(=O)c2ccc(Cl)cc2)[nH]c(Nc2ccc(Cl)cc2)c1C(=S)Nc1ccccc1 | 42.6 µM | 18.1 µM | 51.9 µM | 16.9 µM | 20.3 µM | 20 µM | > 100 µM | 9.41 µM | > 100 µM | 6.6 µM | 11 µM | 18 µM | 16.5 µM | 31.8 µM | 5.14 µM | 27.1 µM | 16.5 µM | 17.8 µM | 20.8 µM
4 | CSC1=NC(=O)CCN1C1OCC(OC(C)=O)C(OC(C)=O)C1OC(C)=O (stereo not drawn) | > 31.6 µM | 22.4 µM | > 31.6 µM | > 31.6 µM | > 31.6 µM | > 31.6 µM | > 31.6 µM | > 31.6 µM | > 23 µM | 22.7 µM | > 31.6 µM | > 31.6 µM | > 31.6 µM | > 31.6 µM | > 31.6 µM | > 100 µM | 26 µM | > 31.6 µM | > 31.6 µM
5 | C[C@]12CCC(=O)C=C1CC[C@@H]1[C@@H]2CC[C@]2(C)C(=O)/C(=C/c3ccncc3)C[C@@H]12 | 64.9 µM | 31.1 µM | > 100 µM | 48.8 µM | 33.8 µM | 44.9 µM | > 100 µM | 31.3 µM | 31.8 µM | 45.1 µM | 90.2 µM | 32.7 µM | 27.4 µM | 28.6 µM | 55.1 µM | 25.6 µM | 38.5 µM | > 100 µM | 29.7 µM
6 | CCOC(=O)c1ccc(OCc2nc3cc(C(F)(F)F)ccc3nc2-c2ccccc2)cc1 | > 100 µM | > 100 µM | > 100 µM | > 100 µM | > 100 µM | > 100 µM | > 100 µM | > 100 µM | > 100 µM | > 100 µM | > 100 µM | > 100 µM | > 100 µM | > 100 µM | > 100 µM | > 100 µM | > 100 µM | > 100 µM | > 100 µM
7 | O=C1C(=Cc2cccc(Cl)c2)N=C(c2ccccc2)N1n1c(-c2ccccc2)nc2ccccc2c1=O | > 100 µM | > 100 µM | > 100 µM | > 100 µM | 51.7 µM | > 100 µM | > 100 µM | > 100 µM | > 100 µM | > 100 µM | > 100 µM | > 100 µM | > 100 µM | > 100 µM | > 100 µM | 96.2 µM | > 100 µM | > 100 µM | > 100 µM
8 | NCc1ccc(O)c(O)c1O | 64.9 µM | 43.5 µM | 43.3 µM | 47.7 µM | > 90.9 µM | 32.7 µM | 56.6 µM | 30.1 µM | 59.1 µM | > 100 µM | 49.1 µM | 29.2 µM | 35.5 µM | > 75.6 µM | 41 µM | > 67.3 µM | > 100 µM | 60.6 µM | 34 µM
9 | O=C1CC2(CCN(CC3COc4ccccc4O3)CC2)C(=O)N1N1CCCCCC1 (stereo not drawn) | 63.6 µM | > 100 µM | – | > 100 µM | > 100 µM | > 100 µM | > 100 µM | > 100 µM | > 100 µM | > 100 µM | > 100 µM | 47.6 µM | > 100 µM | > 100 µM | > 100 µM | > 100 µM | > 100 µM | > 100 µM | –
10 | C=CC(C)CCC(C/C=C(\C)CCCC(C)C)C(=C)CCCC(C)C (stereo not drawn) | > 100 µM | > 100 µM | > 100 µM | > 100 µM | > 100 µM | > 100 µM | > 100 µM | > 100 µM | > 100 µM | > 100 µM | > 100 µM | – | > 100 µM | > 100 µM | > 100 µM | > 100 µM | > 100 µM | > 100 µM | > 100 µM
11 | COc1c(C(=O)/C(=N/Nc2cccc(Cl)c2)C(C)=O)c(O)c(OC)c2occc12 | > 100 µM | > 100 µM | > 100 µM | > 100 µM | > 100 µM | > 100 µM | > 100 µM | > 100 µM | > 100 µM | > 100 µM | > 100 µM | > 100 µM | > 100 µM | > 100 µM | – | > 100 µM | > 100 µM | > 100 µM | > 100 µM
12 | O=C1CC(C(O)C(O)C(O)CO)CC(=O)N1 (stereo not drawn) | > 100 µM | > 100 µM | > 100 µM | > 100 µM | > 100 µM | > 100 µM | > 100 µM | > 100 µM | > 100 µM | > 100 µM | > 100 µM | > 100 µM | > 100 µM | > 100 µM | > 100 µM | – | > 100 µM | > 100 µM | > 100 µM
13 | CCOP(=O)(OCC)c1cc2cc(O)ccc2oc1=O | – | > 100 µM | > 100 µM | > 100 µM | > 100 µM | > 100 µM | > 100 µM | > 100 µM | > 100 µM | > 100 µM | > 100 µM | > 100 µM | > 100 µM | > 100 µM | > 100 µM | > 100 µM | > 100 µM | > 100 µM | > 100 µM
